Earlier results on one compound are cited in PMC12782889, “A GmNRF5a–GmCERK1–GmCAK1 module mediates chitin/chitosan‐triggered immune response in soybean” (Journal of Integrative Plant Biology, 2025).

Structures are written as SMILES.

The data set deals with T1, AtCERK1^ECD (Arabidopsis thaliana, UniProt A8R7E6).
T1 construct: ectodomain of AtCERK1 (aa25–224); made in house; host or cells: Pichia pastoris X-33
T1 sequence (A8R7E6 25-224): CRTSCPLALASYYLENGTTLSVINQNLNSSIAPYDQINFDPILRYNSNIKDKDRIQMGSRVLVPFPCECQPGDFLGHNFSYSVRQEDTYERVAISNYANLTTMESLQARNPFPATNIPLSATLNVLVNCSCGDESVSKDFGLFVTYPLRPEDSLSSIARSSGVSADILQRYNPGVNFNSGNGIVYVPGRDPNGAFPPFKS
Details: method as in Cao et al., 2014. As to conditions: isothermal titration calorimetry (ITC); ref Cao et al., 2014; read-out: K D for AtCERK1^ECD with CTOS; cited from earlier work. (In general: Isothermal titration calorimetry measures the heat released or taken up as one component is titrated into another.)

As for `CC(=O)N[C@H]1[C@H](O[C@H]2[C@H](O)[C@@H](NC(C)=O)[C@H](O[C@H]3[C@H](O)[C@@H](NC(C)=O)C(O)O[C@@H]3CO)O[C@@H]2CO)O[C@H](CO)[C@@H](O[C@@H]2O[C@H](CO)[C@@H](O[C@@H]3O[C@H](CO)[C@@H](O[C@@H]4O[C@H](CO)[C@@H](O)[C@H](O)[C@H]4NC(C)=O)[C@H](O)[C@H]3NC(C)=O)[C@H](O)[C@H]2NC(C)=O)[C@@H]1O` (stereo partly shown) [CTOS (dp6), chitin oligosaccharide], the Kd was 455 µM.
